Laboratory results as given in article PMC9024893, “1,2,4-Trioxolane and 1,2,4,5-Tetraoxane Endoperoxides against Old-World Leishmania Parasites: In Vitro Activity and Mode of Action” (Pharmaceuticals, 2022).

What was measured:
[1] = test system: L. infantum promastigotes; assay: Flow cytometry detection of phosphatidylserine externalization (Annexin V/PI); assay type: cell-based, Leishmania infantum; details: 2 × IC50, 48 h, mean ± SEM
Method: The L. infantum strain (MHOM/PT/1988/IMT151) was chosen for the cytometry analysis and promastigotes at a concentration of 1 × 10^7 parasites/mL were tested against the three compounds evaluated in the intracellular amastigotes assay (LC132, LC137 and LC138). Flow cytometry analysis were performed in a CytoFlex flow cytometer (Beckman Coulter), at an excitation wavelength of 488 nm (blue laser). Data acquisition were collected and registered using channels FL1 (flurescein isothiocyanate, FITC) with a BP filter (525 ± 40 nm) for Fluorescein and FL2 (IP) with a BP filter (570 ± 20 nm) for propidium iodide (PI) and 10,000 total events per sample were analysed using CytExpert v2.0.0.153 software. Samples were analysed in triplicates and two to three independent experiments were performed. Values are expressed as a percentage of cells for a given marker, relatively to the number of cells analysed ± standard error of mean (SEM).
To distinguish apoptotic cell death from necrotic cell death, cells were counterstained with PI, a non-permeable stain with affinity for nucleic acids, as it selectively enters necrotic cells. […] After adding 400 μL of 1 × Binding Buffer, samples were analysed in Cytoflex flow cytometer. Annexin V-FITC and PI were measured in FL1 and FL2 channels, respectively. […]

[2] = test system: L. donovani BD14 intracellular amastigotes; assay: Intracellular amastigotes assay in J774A.1 macrophages, L. donovani; assay type: cell-based; details: Leishmania donovani, J774.A1; 48 h incubation, J774A.1 host cells; read-out: IC50 ± SD, L. donovani intracellular amastigotes
Method: (§1) The intracellular assay using the macrophage J774A.1 cell line was performed with the compounds that presented best SI on the promastigote’s susceptibility assay. J774A.1 cells were adjusted to 2.5 × 10^5 cells/mL in supplemented DMEM medium. 200 μL/well of the cell suspension was placed in 16 well Lab Tek culture glass slides (Nunc), and incubated at 37 °C ± 1 °C, 5% CO2, for 3 h, to enable the cells to adhere to the slides. After a washing step with DMEM to discard non-attached cells, the cells were infected with 2.5 × 10^6 cells/mL promastigotes in a 10:1 parasite-host cell proportion for 24 h. Compounds and control drugs were added in two replicates of six serial concentrations (Table 3). As negative control, macrophages were cultivated in medium and DMSO, as vehicle solution (0.5% v/v). Slides were incubated for 48 h at the same temperature. After a washing step with 1× PBS (Sigma), slides were fixed and stained, and the infection index was calculated according to [34] by counting the number of intracellular amastigotes per 100 macrophages, in treated and untreated cells. Two independent experiments were performed to determine the amastigotes IC50 of each compound, which was calculated by fitting the data as a non-linear regression with variable slope using a dose-response inhibitory model, in the GraphPad Prism V 8.0 program. SI was determined as described above.

[3] = Cytotoxicity assay (MTT), J774A.1 cell line; assay type: cell-based; details: mouse
Method: (§2) Adherent BALB/c mouse macrophage cell line J774A.1 (ATCC® TIB 67™) and suspension human acute monocytic leukemic cell line THP-1 (ATCC® TIB-202™) were purchased from DSMZ, Germany were cultured and maintained in DMEM medium (Gibco) and RPMI 1640 (Sigma), respectively, supplemented with 10% FBS, 1% penicillin-streptomycin (Sigma) and L-glutamine 200 mM (Sigma), at 37 °C, 5% CO2.
(§3) Cell lines J774A.1 and THP-1 were used to estimate CC50 of the peroxides. Cells were plated in 96-well flat bottom culture plates (VWR) at 5 × 10^5 cells/mL. The monocytic cell line THP-1 was differentiated in RPMI medium with phorbol myristate acetate (PMA) (25 ng/mL; Sigma) for 24 h, followed by a washing step with RPMI medium. Six serial concentrations of the compounds (Table 3) were added in four replicates and the plates were incubated at 37 °C ± 1 °C, 5% CO2 for 48 h. An untreated control (cells in DMEM or RPMI medium plus 0.5% DMSO as vehicle) and blank (medium alone) were plated out in quadruplicate. After the incubation period, 20 µL/well of MTT [3-(4,5-dimethylthiazol-2-yl)-2,5-diphenyltetrazolium bromide] was added to a final concentration of 5 µg/mL in 1× phosphate-buffered saline (PBS, Merck), with an additional 4 h incubation at 36 °C, as previously described. The formazan salts were resuspended in 2-propanol (Merck) and the cell viability was determined by measuring absorbance with a Synergy ™HTX Multi Mode Microplate Reader at 595 nm (Dynex Technologies). The CC50 values were calculated fitting the data as a non-linear regression with variable slope using a dose-response inhibitory model, in the GraphPad Prism V 8.0 program. Each compound was tested in three independent assays.

[4] = Cytotoxicity assay (MTT), PMA-differentiated THP-1 cell line; assay type: cell-based; details: human
Method: as §2, §3

[5] = test system: L. infantum IMT151 intracellular amastigotes; assay: Intracellular amastigotes assay in J774A.1 macrophages, L. infantum; assay type: cell-based; details: Leishmania infantum, J774.A1; 48 h incubation, J774A.1 host cells; read-out: IC50 ± SD, L. infantum intracellular amastigotes
Method: as §1

C[C@@H]1[C@H](O)[C@@H](C)/C=C/C=C/C=C/C=C/C=C/C=C/C=C/[C@H](O[C@@H]2O[C@H](C)[C@@H](O)[C@H](N)[C@@H]2O)C[C@@H]2O[C@](O)(C[C@@H](O)C[C@@H](O)[C@H](O)CC[C@@H](O)C[C@@H](O)CC(=O)O[C@H]1C)C[C@H](O)[C@H]2C(=O)O [AmB, amphotericin B, reference compound]
late apoptosis (Annexin+/PI+) cell population [1]: 17.5 ± 0.9%
IC50 [2]: 0.1 µM
CC50 at 48 h [3]: 71.9 ± 5.4 µM
CC50 at 48 h [4]: 23.2 ± 3 µM
IC50 [5]: 0.3 ± 0.1 µM

CCOC(=O)C1CCC2(CC1)OOC1(OO2)C2CC3CC(C2)CC1C3 (stereo not shown) [LC138]
late apoptosis (Annexin+/PI+) cell population [1]: 20.5 ± 4.2%
IC50 [2]: 426 ± 25.5 µM
CC50 at 48 h ([3]; J774A.1 macrophage cells, 48 h incubation, MTT, read-out: CC50 ± SD, J774A.1 Cell Line): 528 ± 54 µM
CC50 at 48 h ([4]; PMA-differentiated THP-1 cells, 48 h incubation, MTT, read-out: CC50 ± SD, THP-1 Cell Line): 2839 ± 15 µM
IC50 [5]: 23.9 ± 2.7 µM
